# Measured values: ChEMBL document CHEMBL3046109, “A Method for Monitoring the Sensitivity of Botrytis cinerea to Mepanipyrim” (2004)
# How the values were obtained:
# Type in all cases: functional
# Botrytis cinerea [1] = experiment: Fungicidal activity against anilinopyrimidine-sensitive Botryotinia fuckeliana KU-01 infected in strawberry fruit assessed as inhibition of mycelial growth at 200 mg/l treated 2-3 hr before challenge measured after 5 days; conditions: read-out: GI
# Botrytis cinerea [2] = experiment: Fungicidal activity against anilinopyrimidine-resistant Botryotinia fuckeliana CH15.93 isolated from grape plant assessed as inhibition of mycelial growth at 0.1 mg/l after 4 days; conditions: CH15.93, 96 h, read-out: GI
# Botrytis cinerea [3] = experiment: Fungicidal activity against anilinopyrimidine-resistant Botryotinia fuckeliana CH164.94 isolated from grape plant assessed as inhibition of mycelial growth at 1 mg/l after 4 days; conditions: CH164.94, 96 h, read-out: GI
# Botrytis cinerea [4] = experiment: Fungicidal activity against anilinopyrimidine-resistant Botryotinia fuckeliana CH15.93 isolated from grape plant assessed as inhibition of mycelial growth at 1 mg/l after 4 days; conditions: CH15.93, 96 h, read-out: GI
# Botrytis cinerea [5] = experiment: Fungicidal activity against anilinopyrimidine-resistant Botryotinia fuckeliana CH12.92 isolated from grape plant assessed as inhibition of mycelial growth at 3 mg/l after 4 days; conditions: CH12.92, 96 h, read-out: GI
# Botrytis cinerea [6] = experiment: Fungicidal activity against anilinopyrimidine-resistant Botryotinia fuckeliana CH12.92 isolated from grape plant assessed as inhibition of mycelial growth at 0.1 mg/l after 4 days; conditions: CH12.92, 96 h, read-out: GI
# Botrytis cinerea [7] = experiment: Fungicidal activity against anilinopyrimidine-resistant Botryotinia fuckeliana CH15.93 isolated from grape plant assessed as inhibition of mycelial growth at 0.3 mg/l after 4 days; conditions: CH15.93, 96 h, read-out: GI
# Botrytis cinerea [8] = experiment: Fungicidal activity against anilinopyrimidine-sensitive Botryotinia fuckeliana KU-59 isolated from grape plant assessed as inhibition of mycelial growth at 30 mg/l after 4 days; conditions: KU-59, 96 h, read-out: GI
# Botrytis cinerea [9] = experiment: Fungicidal activity against anilinopyrimidine-resistant Botryotinia fuckeliana CH15.93 isolated from grape plant assessed as inhibition of mycelial growth at 3 mg/l after 4 days; conditions: CH15.93, 96 h, read-out: GI
# Botrytis cinerea [10] = experiment: Fungicidal activity against anilinopyrimidine-resistant Botryotinia fuckeliana CH164.94 isolated from grape plant assessed as inhibition of mycelial growth at 30 mg/l after 4 days; conditions: CH164.94, 96 h, read-out: GI
# Botrytis cinerea [11] = experiment: Fungicidal activity against anilinopyrimidine-sensitive Botryotinia fuckeliana KU-59 isolated from grape plant assessed as inhibition of mycelial growth at 3 mg/l after 4 days; conditions: KU-59, 96 h, read-out: GI
# Botrytis cinerea [12] = experiment: Fungicidal activity against anilinopyrimidine-sensitive Botryotinia fuckeliana KU-01 infected in strawberry fruit assessed as inhibition of mycelial growth at 50 mg/l treated 2-3 hr before challenge measured after 5 days; conditions: read-out: GI
# Botrytis cinerea [13] = experiment: Fungicidal activity against anilinopyrimidine-sensitive Botryotinia fuckeliana KU-01 infected in strawberry fruit assessed as inhibition of mycelial growth at 100 mg/l treated 2-3 hr before challenge measured after 5 days; conditions: read-out: GI
# Botrytis cinerea [14] = experiment: Fungicidal activity against anilinopyrimidine-sensitive Botryotinia fuckeliana KU-59 isolated from grape plant assessed as inhibition of mycelial growth at 100 mg/l after 4 days; conditions: KU-59, 96 h, read-out: GI
# Botrytis cinerea [15] = experiment: Fungicidal activity against anilinopyrimidine-sensitive Botryotinia fuckeliana KU-01 isolated from grape plant assessed as inhibition of mycelial growth at 30 mg/l after 4 days; conditions: KU-01, 96 h, read-out: GI
# Botrytis cinerea [16] = experiment: Fungicidal activity against anilinopyrimidine-sensitive Botryotinia fuckeliana KU-59 isolated from grape plant assessed as inhibition of mycelial growth at 10 mg/l after 4 days; conditions: KU-59, 96 h, read-out: GI
# Botrytis cinerea [17] = experiment: Fungicidal activity against anilinopyrimidine-sensitive Botryotinia fuckeliana KU-01 isolated from grape plant assessed as inhibition of mycelial growth at 0.1 mg/l after 4 days; conditions: KU-01, 96 h, read-out: GI
# Botrytis cinerea [18] = experiment: Fungicidal activity against anilinopyrimidine-sensitive Botryotinia fuckeliana KU-01 isolated from grape plant assessed as inhibition of mycelial growth at 3 mg/l after 4 days; conditions: KU-01, 96 h, read-out: GI
# Botrytis cinerea [19] = experiment: Fungicidal activity against anilinopyrimidine-sensitive Botryotinia fuckeliana KU-01 isolated from grape plant assessed as inhibition of mycelial growth at 0.3 mg/l after 4 days; conditions: KU-01, 96 h, read-out: GI
# Botrytis cinerea [20] = experiment: Fungicidal activity against anilinopyrimidine-resistant Botryotinia fuckeliana CH164.94 isolated from grape plant assessed as inhibition of mycelial growth at 0.3 mg/l after 4 days; conditions: CH164.94, 96 h, read-out: GI
# Botrytis cinerea [21] = experiment: Fungicidal activity against anilinopyrimidine-resistant Botryotinia fuckeliana CH15.93 isolated from grape plant assessed as inhibition of mycelial growth at 10 mg/l after 4 days; conditions: CH15.93, 96 h, read-out: GI
# Botrytis cinerea [22] = experiment: Fungicidal activity against anilinopyrimidine-resistant Botryotinia fuckeliana CH164.94 infected in strawberry fruit assessed as inhibition of mycelial growth at 200 mg/l treated 2-3 hr before challenge measured after 5 days; conditions: read-out: GI
# Botrytis cinerea [23] = experiment: Fungicidal activity against anilinopyrimidine-sensitive Botryotinia fuckeliana KU-59 isolated from grape plant assessed as inhibition of mycelial growth at 0.1 mg/l after 4 days; conditions: KU-59, 96 h, read-out: GI
# Botrytis cinerea [24] = experiment: Fungicidal activity against anilinopyrimidine-sensitive Botryotinia fuckeliana KU-59 isolated from grape plant assessed as inhibition of mycelial growth at 1 mg/l after 4 days; conditions: KU-59, 96 h, read-out: GI
# Botrytis cinerea [25] = experiment: Fungicidal activity against anilinopyrimidine-resistant Botryotinia fuckeliana CH15.93 infected in strawberry fruit assessed as inhibition of mycelial growth at 200 mg/l treated 2-3 hr before challenge measured after 5 days; conditions: read-out: GI
structure (smiles),measurement,setting,value
CC#Cc1cc(C)nc(Nc2ccccc2)n1 [MEPANIPYRIM],inhibition of growth at 200 µg/mL,Botrytis cinerea [1],100%
same,inhibition of growth at 0.1 µg/mL,Botrytis cinerea [2],0%
same,inhibition of growth at 1 µg/mL,Botrytis cinerea [3],38.3%
same,inhibition of growth at 1 µg/mL,Botrytis cinerea [4],34.9%
same,inhibition of growth at 3 µg/mL,Botrytis cinerea [5],60.1%
same,inhibition of growth at 0.1 µg/mL,Botrytis cinerea [6],0%
same,inhibition of growth at 0.3 µg/mL,Botrytis cinerea [7],0%
same,inhibition of growth at 30 µg/mL,Botrytis cinerea [8],100%
same,inhibition of growth at 3 µg/mL,Botrytis cinerea [9],65.7%
same,inhibition of growth at 30 µg/mL,Botrytis cinerea [10],66.2%
same,inhibition of growth at 3 µg/mL,Botrytis cinerea [11],100%
same,inhibition of growth at 50 µg/mL,Botrytis cinerea [12],100%
same,inhibition of growth at 100 µg/mL,Botrytis cinerea [13],100%
same,inhibition of growth at 100 µg/mL,Botrytis cinerea [14],100%
same,inhibition of growth at 30 µg/mL,Botrytis cinerea [15],100%
same,inhibition of growth at 10 µg/mL,Botrytis cinerea [16],100%
same,inhibition of growth at 0.1 µg/mL,Botrytis cinerea [17],75.5%
same,inhibition of growth at 3 µg/mL,Botrytis cinerea [18],100%
same,inhibition of growth at 0.3 µg/mL,Botrytis cinerea [19],100%
same,inhibition of growth at 0.3 µg/mL,Botrytis cinerea [20],0%
same,inhibition of growth at 10 µg/mL,Botrytis cinerea [21],72.6%
same,inhibition of growth at 200 µg/mL,Botrytis cinerea [22],0%
same,inhibition of growth at 0.1 µg/mL,Botrytis cinerea [23],86.4%
same,inhibition of growth at 1 µg/mL,Botrytis cinerea [24],100%
same,inhibition of growth at 200 µg/mL,Botrytis cinerea [25],0%
